Assay results reported in the supplement of paper PMC10307832.

Experiments:
Assay in all cases: relative viability (nuclei count vs DMSO), 5 days (fraction); higher = more cells survive
[1] = test system: H3255
How it was run: (§1)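 Values are medians from duplicate plates. Each reflects relative viability, defined as the nuclei count of treated wells over that of vehicle wells. Lung cancer cell lines in 1536-well plates were pin-tool dosed one day after seeding with one drug alone or with a fixed anchor-drug dose plus five library-drug doses (not always all listed) in √10 steps, then fixed, stained and imaged at 4× after 5 days.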

[2] = test system: NCI-H520
How it was run: as §1

[3] = test system: NCI-H2087
How it was run: as §1

[4] = test system: NCI-H1793
How it was run: as §1

[5] = test system: ChaGo-K-1
How it was run: as §1

[6] = test system: NCI-H1563
How it was run: as §1

[7] = test system: NCI-H1651
How it was run: as §1

[8] = test system: SK-MES-1
How it was run: as §1

[9] = test system: LCLC-103H
How it was run: as §1

[10] = test system: LCLC-97TM1
How it was run: as §1

[11] = test system: NCI-H1993
How it was run: as §1

[12] = test system: NCI-H23
How it was run: as §1

[13] = test system: NCI-H322M
How it was run: as §1

[14] = test system: EMC-BAC-2
How it was run: as §1

[15] = test system: EPLC-272H
How it was run: as §1

[16] = test system: UMC-11
How it was run: as §1

[17] = test system: NCI-H1395
How it was run: as §1

[18] = test system: NCI-H650
How it was run: as §1

[19] = test system: HCC-827
How it was run: as §1

[20] = test system: NCI-H1355
How it was run: as §1

[21] = test system: NCI-H2405
How it was run: as §1

[22] = test system: NCI-H1944
How it was run: as §1

[23] = test system: NCI-H2085
How it was run: as §1

In the case of `C[C@@H]1CN(CC(=O)Nc2ccc3c(c2)Cc2cccc(-c4cc(=O)cc(N5CCOCC5)o4)c2S3)C[C@H](C)O1` + COc1cc2c(Oc3ccc(NC(=O)C4(C(=O)Nc5ccc(F)cc5)CC4)cc3F)ccnc2cc1OCCCN1CCOCC1 [Foretinib] (partner 0.25 µM), the relative viability ([1]; first compound 0.04 µM) is reported as 1.02, the relative viability ([1]; first compound 0.1265 µM) is reported as 0.837 and the relative viability ([1]; first compound 0.4 µM) is reported as 0.677. For the same compound, the relative viability ([1]; first compound 4 µM) was 0.783, the relative viability ([2]; first compound 0.04 µM) was 0.86 and the relative viability ([2]; first compound 0.1265 µM) was 0.88. For the same compound, the relative viability ([2]; first compound 0.4 µM) was 0.527, the relative viability ([2]; first compound 4 µM) was 0.613 and the relative viability ([3]; first compound 0.04 µM) was 1.15. The relative viability ([3]; first compound 0.1265 µM) was 0.954, the relative viability ([3]; first compound 0.4 µM) was 1.05 and the relative viability ([3]; first compound 4 µM) was 0.801. The relative viability ([4]; first compound 0.04 µM) was 0.556, the relative viability ([4]; first compound 0.1265 µM) was 0.72 and the relative viability ([4]; first compound 0.4 µM) was 0.809. For the same compound, the relative viability ([4]; first compound 4 µM) was 0.476, the relative viability ([5]; first compound 0.04 µM) was 0.793 and the relative viability ([5]; first compound 0.1265 µM) was 0.929. For the same compound, the relative viability ([5]; first compound 0.4 µM) was 0.892, the relative viability ([5]; first compound 4 µM) was 0.825 and the relative viability ([6]; first compound 0.04 µM) was 0.831. It also gave a relative viability ([6]; first compound 0.1265 µM) of 0.894, a relative viability ([6]; first compound 0.4 µM) of 0.908 and a relative viability ([6]; first compound 4 µM) of 0.788. It also gave a relative viability ([7]; first compound 0.04 µM) of 0.924, a relative viability ([7]; first compound 0.1265 µM) of 1.14 and a relative viability ([7]; first compound 0.4 µM) of 0.96. For the same compound, the relative viability ([7]; first compound 4 µM) was 0.679, the relative viability ([8]; first compound 0.04 µM) was 1.15 and the relative viability ([8]; first compound 0.1265 µM) was 0.822. For the same compound, the relative viability ([8]; first compound 0.4 µM) was 0.76, the relative viability ([8]; first compound 4 µM) was 0.746 and the relative viability ([9]; first compound 0.04 µM) was 0.777. The relative viability ([9]; first compound 0.1265 µM) was 0.671, the relative viability ([9]; first compound 0.4 µM) was 0.671 and the relative viability ([9]; first compound 4 µM) was 0.608. It also gave a relative viability ([10]; first compound 0.04 µM) of 0.902, a relative viability ([10]; first compound 0.1265 µM) of 0.862 and a relative viability ([10]; first compound 0.4 µM) of 0.959. For the same compound, the relative viability ([10]; first compound 4 µM) was 0.969, the relative viability ([11]; first compound 0.04 µM) was 0.811 and the relative viability ([11]; first compound 0.1265 µM) was 0.711. For the same compound, the relative viability ([11]; first compound 0.4 µM) was 0.646, the relative viability ([11]; first compound 4 µM) was 0.707 and the relative viability ([12]; first compound 0.04 µM) was 0.95. It also gave a relative viability ([12]; first compound 0.1265 µM) of 0.85, a relative viability ([12]; first compound 0.4 µM) of 0.945 and a relative viability ([12]; first compound 4 µM) of 0.844. For the same compound, the relative viability ([13]; first compound 0.04 µM) was 0.508, the relative viability ([13]; first compound 0.1265 µM) was 0.965 and the relative viability ([13]; first compound 0.4 µM) was 0.979. The relative viability ([13]; first compound 4 µM) was 0.874, the relative viability ([14]; first compound 0.04 µM) was 1.08 and the relative viability ([14]; first compound 0.1265 µM) was 1.04. For the same compound, the relative viability ([14]; first compound 0.4 µM) was 0.998, the relative viability ([14]; first compound 4 µM) was 0.92 and the relative viability ([15]; first compound 0.04 µM) was 0.643. It also gave a relative viability ([15]; first compound 0.1265 µM) of 0.817, a relative viability ([15]; first compound 0.4 µM) of 0.761 and a relative viability ([15]; first compound 4 µM) of 0.674. For the same compound, the relative viability ([16]; first compound 0.04 µM) was 1.1, the relative viability ([16]; first compound 0.1265 µM) was 0.995 and the relative viability ([16]; first compound 0.4 µM) was 1.1. The relative viability ([16]; first compound 4 µM) was 0.746, the relative viability ([17]; first compound 0.04 µM) was 1.06 and the relative viability ([17]; first compound 0.1265 µM) was 1.07. The relative viability ([17]; first compound 0.4 µM) was 0.982, the relative viability ([17]; first compound 4 µM) was 0.866 and the relative viability ([18]; first compound 0.04 µM) was 0.993. It also gave a relative viability ([18]; first compound 0.1265 µM) of 0.977, a relative viability ([18]; first compound 0.4 µM) of 1.03 and a relative viability ([18]; first compound 4 µM) of 0.875. The relative viability ([19]; first compound 0.04 µM) was 1.08, the relative viability ([19]; first compound 0.1265 µM) was 1 and the relative viability ([19]; first compound 0.4 µM) was 1.08. The relative viability ([19]; first compound 4 µM) was 0.939, the relative viability ([20]; first compound 0.04 µM) was 0.95 and the relative viability ([20]; first compound 0.1265 µM) was 0.964. The relative viability ([20]; first compound 0.4 µM) was 0.951, the relative viability ([20]; first compound 4 µM) was 0.858 and the relative viability ([21]; first compound 0.04 µM) was 1.02. For the same compound, the relative viability ([21]; first compound 0.1265 µM) was 1.08, the relative viability ([21]; first compound 0.4 µM) was 1.03 and the relative viability ([21]; first compound 4 µM) was 1.03. For the same compound, the relative viability ([22]; first compound 0.04 µM) was 0.761, the relative viability ([22]; first compound 0.1265 µM) was 0.888 and the relative viability ([22]; first compound 0.4 µM) was 0.926. The relative viability ([22]; first compound 4 µM) was 0.912, the relative viability ([23]; first compound 0.04 µM) was 1.15 and the relative viability ([23]; first compound 0.1265 µM) was 0.83. It also gave a relative viability ([23]; first compound 0.4 µM) of 1.03 and a relative viability ([23]; first compound 4 µM) of 0.745.
